Test results from US20230131402A1, “SPIRO-LACTAM NMDA RECEPTOR MODULATORS AND USES THEREOF” (Aptinyx Inc., priority 2016, published 2023).
Like-named read-outs stand apart in the source and are kept apart here.

Tests used:
[1] = Oral pharmacokinetics (plasma, brain, CSF); conditions: rat, per os, 10 mg/kg
Method: (§6) Plasma, brain, and CSF samples were analyzed at various time points over a 24 hour period.

NMDAR2C = biological target: T1, NMDAR2C (Homo sapiens, UniProt Q14957); assay: [3H]MK-801 binding, NMDAR2C expressing HEK cell membranes; assay type: biochemical; conditions: 50 μM glutamate
T1 construct: expressed in transfected cells; host or cells: HEK cells (membrane extract)
Method: (§1) Assays were conducted as described by Moskal et al., “GLYX-13: a monoclonal antibody-derived peptide that acts as an N-methyl-D-aspartate receptor modulator,” Neuropharmacology, 49, 1077-87, 2005. These studies were designed to determine if the test compounds act to facilitate NMDAR activation in NMDAR2A, NMDAR2B, NMDAR2C or NMDAR2D expressing HEK cell membranes as measured by increases in [^3H]MK-801 binding.
(§2) In the assay, 300 μg of NMDAR expressing HEK cell membrane extract protein was preincubated for 15 minutes at 25° C. in the presence of saturating concentrations of glutamate (50 μM) and varying concentrations of test compound (1×10^−15M−1×10^−7M), or 1 mM glycine. Following the addition of 0.3 μCi of [^3H]MK-801 (22.5 Ci/mmol), reactions were again incubated for 15 minutes at 25° C. (nonequilibrium conditions). Bound and free [^3H]MK-801 were separated via rapid filtration using a Brandel apparatus.
(§3) In analyzing the data, the DPM (disintegrations per minute) of [^3H]MK-801 remaining on the filter were measured for each concentration of test compound or for 1 mM glycine. The DPM values for each concentration of a ligand (N=2) were averaged. The baseline value was determined from the best fit curve of the DPM values modeled using the GraphPad program and the log(agonist) vs. response(three parameters) algorithm was then subtracted from all points in the dataset. The % maximal [^3H]MK-801 binding was then calculated relative to that of 1 mM glycine: all baseline subtracted DPM values were divided by the average value for 1 mM glycine. The EC50 and % maximal activity were then obtained from the best fit curve of the % maximal [^3H]MK-801 binding data modelled using the GraphPad program and the log(agonist) vs. response(three parameters) algorithm.
(§4) The tables below summarize the results for the wild type NMDAR agonists NMDAR2A, NMDAR2B, NMDAR2C, and NMDAR2D, and whether the compound is not an agonist (−), is an agonist (+), or is a strong agonist (++), where column A is based on the % maximal [^3H]MK-801 binding relative to 1 mM glycine (−=0; <100%=+; and >100%=++); and column B is based on log EC50 values (0=−; ≥1×10^−9M (e.g., −8)=+; and <1×10^−9M (e.g., −10)=++).

[2] = system: positive (hedonic) 50-kHz ultrasonic vocalizations (USVs); assay: Positive emotional learning (PEL) test; assay type: in vivo, rats; conditions: rat, PO, dose .001-1 mg/kg, 1 h after administration
Method: Experiments were conducted as described in Burgdorf et al., “The effect of selective breeding for differential rates of 50-kHz ultrasonic vocalizations on emotional behavior in rats,” Devel. Psychobiol., 51:34-46 (2009). Rat 50-kHz ultrasonic vocalization (hedonic USVs) is a validated model for the study of positive affective state and is best elicited by rough-and-tumble play.
The PEL assay measures the acquisition of positive (hedonic) 50-kHz ultrasonic vocalizations (USVs) to a social stimulus, heterospecific rough and tumble play stimulation. Heterospecific rough-and-tumble play stimulation was administered by the experimenter's right hand. One hour after administration of test compound or vehicle negative control (0.5% sodium carboxymethyl cellulose in 0.9% sterile saline vehicle), animals received 3 min of heterospecific rough-and-tumble play that consisted of alternating 15 sec blocks of heterospecific play and 15 sec of no-stimulation. High frequency ultrasonic vocalizations (USVs) were recorded and analyzed by sonogram with Avasoft SASlab Pro (Germany) as previously described by Burgdorf et al., “Positive emotional learning is regulated in the medial prefrontal cortex by GluN2B-containing NMDA receptors,” Neuroscience, 192:515-523 (2011). Frequency modulated 50-kHz US V s that occurred during each of the no-stimulation periods were quantified to measure PEL. Animals were not habituated to play stimulation before testing. Positive emotional learning was measured during the conditioned stimulus (CS) trials preceding the tickle unconditioned stimulus (UCS) trials. Animals received 15 second trials consisting of 6 CS and 6 UCS trials each (3 min total).
The table below summarizes the findings. As each experiment includes its own vehicle group, an example (typical) vehicle score is shown. Max effect (mean number of 50 kHz USVs per 15 seconds) is reported as ∧: <6.0; *: 6.0-7.6; **: 7.7-10; ***: 10.1-20.

NMDAR2A = biological target: T2, NMDAR2A (Homo sapiens, UniProt Q12879); assay: [3H]MK-801 binding, NMDAR2A expressing HEK cell membranes; assay type: biochemical; conditions: 50 μM glutamate
T2 construct: expressed in transfected cells; host or cells: HEK cells (membrane extract)
Summary of the method: (§5)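 HEK membranes expressing NMDAR2A, 2B, 2C or 2D (300 μg protein) were preincubated 15 min at 25 °C with 50 μM glutamate and compound (1×10^−15–1×10^−7 M), then 15 min with 0.3 μCi [3H]MK-801 (nonequilibrium) before filtration. Baseline-subtracted binding was normalized to 1 mM glycine, yielding EC50 and % maximal activity.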

IV pharmacokinetics = assay type: in vivo, Sprague Dawley rats; conditions: rat, 2 mg/kg, normal saline (compounds marked * in 1% NMP and 99% normal saline)
Text: The table below summarizes the results of the IV pharmacokinetics.

NMDAR2D = biological target: T3, NMDAR2D (Homo sapiens, UniProt O15399); assay: [3H]MK-801 binding, NMDAR2D expressing HEK cell membranes; assay type: biochemical; conditions: 50 μM glutamate
T3 construct: expressed in transfected cells; host or cells: HEK cells (membrane extract)
Method: as §1, §2, §3, §4

NMDAR2B = biological target: T4, NMDAR2B (Homo sapiens, UniProt Q13224); assay: [3H]MK-801 binding, NMDAR2B expressing HEK cell membranes; assay type: biochemical; conditions: 50 μM glutamate
T4 construct: expressed in transfected cells; host or cells: HEK cells (membrane extract)
Summary of the method: as §5

[3] = Sprague Dawley, rat, in vivo, po, 10 mg/kg
Method: as §6

in vivo = conditions: Sprague Dawley, rat, po, 10 mg/kg
Method: as §6

[4] = normal saline (compounds marked * in 1% NMP and 99% normal saline)

T1 sequence (Q14957 20-1233, species assumed, other chains not shown): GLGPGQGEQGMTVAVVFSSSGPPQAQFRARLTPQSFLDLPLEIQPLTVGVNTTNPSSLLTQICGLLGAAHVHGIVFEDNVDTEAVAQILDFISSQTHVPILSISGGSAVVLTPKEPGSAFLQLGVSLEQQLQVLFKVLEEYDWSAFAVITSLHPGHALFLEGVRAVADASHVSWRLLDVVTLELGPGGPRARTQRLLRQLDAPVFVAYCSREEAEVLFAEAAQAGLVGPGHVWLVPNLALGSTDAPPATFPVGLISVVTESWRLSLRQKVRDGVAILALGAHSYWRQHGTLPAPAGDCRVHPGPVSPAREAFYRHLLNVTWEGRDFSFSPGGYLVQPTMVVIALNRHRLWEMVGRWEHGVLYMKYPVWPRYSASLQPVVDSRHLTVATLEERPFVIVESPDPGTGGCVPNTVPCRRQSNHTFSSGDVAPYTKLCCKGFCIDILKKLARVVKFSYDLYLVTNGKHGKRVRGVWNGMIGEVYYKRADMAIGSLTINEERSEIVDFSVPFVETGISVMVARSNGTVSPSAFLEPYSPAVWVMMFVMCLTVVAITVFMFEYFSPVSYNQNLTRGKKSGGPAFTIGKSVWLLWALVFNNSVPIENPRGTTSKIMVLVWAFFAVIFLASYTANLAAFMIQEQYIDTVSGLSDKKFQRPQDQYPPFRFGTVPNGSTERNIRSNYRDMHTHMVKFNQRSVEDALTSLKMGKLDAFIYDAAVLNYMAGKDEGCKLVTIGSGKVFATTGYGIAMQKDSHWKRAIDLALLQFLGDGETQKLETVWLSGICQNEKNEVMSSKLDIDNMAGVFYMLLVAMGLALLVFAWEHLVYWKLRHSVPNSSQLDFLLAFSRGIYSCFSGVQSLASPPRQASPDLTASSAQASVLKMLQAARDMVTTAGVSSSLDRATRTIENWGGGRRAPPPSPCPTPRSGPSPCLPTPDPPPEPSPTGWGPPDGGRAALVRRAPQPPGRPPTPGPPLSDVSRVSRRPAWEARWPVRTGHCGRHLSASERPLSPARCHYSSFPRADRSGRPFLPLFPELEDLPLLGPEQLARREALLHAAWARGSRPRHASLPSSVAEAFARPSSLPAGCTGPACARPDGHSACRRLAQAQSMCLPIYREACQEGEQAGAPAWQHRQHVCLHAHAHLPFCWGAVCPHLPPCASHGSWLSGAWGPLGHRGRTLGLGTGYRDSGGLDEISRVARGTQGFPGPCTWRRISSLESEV
T4 sequence (Q13224 27-1484, species assumed, other chains not shown): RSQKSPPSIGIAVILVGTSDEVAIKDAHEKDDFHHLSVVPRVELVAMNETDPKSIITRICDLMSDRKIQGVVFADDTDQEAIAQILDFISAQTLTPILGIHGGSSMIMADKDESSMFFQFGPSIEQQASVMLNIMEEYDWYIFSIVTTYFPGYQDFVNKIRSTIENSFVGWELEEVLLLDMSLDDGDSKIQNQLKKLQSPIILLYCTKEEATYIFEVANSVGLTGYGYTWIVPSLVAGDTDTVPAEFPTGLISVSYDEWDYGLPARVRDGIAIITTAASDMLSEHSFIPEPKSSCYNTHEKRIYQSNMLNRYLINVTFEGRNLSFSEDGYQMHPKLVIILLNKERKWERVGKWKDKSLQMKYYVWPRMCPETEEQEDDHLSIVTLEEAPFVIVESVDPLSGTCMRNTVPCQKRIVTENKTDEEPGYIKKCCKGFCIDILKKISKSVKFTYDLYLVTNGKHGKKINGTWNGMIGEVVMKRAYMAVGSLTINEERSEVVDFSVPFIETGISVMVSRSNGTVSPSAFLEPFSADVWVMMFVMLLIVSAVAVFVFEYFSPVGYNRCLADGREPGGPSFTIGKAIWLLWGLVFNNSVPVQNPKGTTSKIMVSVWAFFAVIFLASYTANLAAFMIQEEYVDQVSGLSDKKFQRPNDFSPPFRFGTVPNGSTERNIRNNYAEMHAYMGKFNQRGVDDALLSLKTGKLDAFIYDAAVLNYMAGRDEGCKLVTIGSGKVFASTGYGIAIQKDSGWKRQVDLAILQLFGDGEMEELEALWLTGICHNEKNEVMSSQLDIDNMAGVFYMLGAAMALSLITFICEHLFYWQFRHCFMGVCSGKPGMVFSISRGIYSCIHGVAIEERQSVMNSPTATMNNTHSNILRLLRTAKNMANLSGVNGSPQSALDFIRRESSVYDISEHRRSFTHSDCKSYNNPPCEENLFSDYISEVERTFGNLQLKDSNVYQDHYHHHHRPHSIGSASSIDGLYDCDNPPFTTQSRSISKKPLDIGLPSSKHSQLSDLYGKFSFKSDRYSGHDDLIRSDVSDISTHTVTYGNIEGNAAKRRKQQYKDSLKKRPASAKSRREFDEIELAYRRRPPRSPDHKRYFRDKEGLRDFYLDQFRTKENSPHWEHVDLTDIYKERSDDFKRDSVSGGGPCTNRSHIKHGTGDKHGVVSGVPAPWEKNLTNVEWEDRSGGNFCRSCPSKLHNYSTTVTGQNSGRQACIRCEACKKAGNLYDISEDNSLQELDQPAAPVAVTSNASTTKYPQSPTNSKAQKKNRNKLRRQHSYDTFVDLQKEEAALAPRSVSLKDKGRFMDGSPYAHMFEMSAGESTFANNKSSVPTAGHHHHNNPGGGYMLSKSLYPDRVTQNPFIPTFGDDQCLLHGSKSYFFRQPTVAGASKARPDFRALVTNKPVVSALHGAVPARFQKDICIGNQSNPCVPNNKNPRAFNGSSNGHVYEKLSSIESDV
T2 sequence (Q12879 23-1464, species assumed, other chains not shown): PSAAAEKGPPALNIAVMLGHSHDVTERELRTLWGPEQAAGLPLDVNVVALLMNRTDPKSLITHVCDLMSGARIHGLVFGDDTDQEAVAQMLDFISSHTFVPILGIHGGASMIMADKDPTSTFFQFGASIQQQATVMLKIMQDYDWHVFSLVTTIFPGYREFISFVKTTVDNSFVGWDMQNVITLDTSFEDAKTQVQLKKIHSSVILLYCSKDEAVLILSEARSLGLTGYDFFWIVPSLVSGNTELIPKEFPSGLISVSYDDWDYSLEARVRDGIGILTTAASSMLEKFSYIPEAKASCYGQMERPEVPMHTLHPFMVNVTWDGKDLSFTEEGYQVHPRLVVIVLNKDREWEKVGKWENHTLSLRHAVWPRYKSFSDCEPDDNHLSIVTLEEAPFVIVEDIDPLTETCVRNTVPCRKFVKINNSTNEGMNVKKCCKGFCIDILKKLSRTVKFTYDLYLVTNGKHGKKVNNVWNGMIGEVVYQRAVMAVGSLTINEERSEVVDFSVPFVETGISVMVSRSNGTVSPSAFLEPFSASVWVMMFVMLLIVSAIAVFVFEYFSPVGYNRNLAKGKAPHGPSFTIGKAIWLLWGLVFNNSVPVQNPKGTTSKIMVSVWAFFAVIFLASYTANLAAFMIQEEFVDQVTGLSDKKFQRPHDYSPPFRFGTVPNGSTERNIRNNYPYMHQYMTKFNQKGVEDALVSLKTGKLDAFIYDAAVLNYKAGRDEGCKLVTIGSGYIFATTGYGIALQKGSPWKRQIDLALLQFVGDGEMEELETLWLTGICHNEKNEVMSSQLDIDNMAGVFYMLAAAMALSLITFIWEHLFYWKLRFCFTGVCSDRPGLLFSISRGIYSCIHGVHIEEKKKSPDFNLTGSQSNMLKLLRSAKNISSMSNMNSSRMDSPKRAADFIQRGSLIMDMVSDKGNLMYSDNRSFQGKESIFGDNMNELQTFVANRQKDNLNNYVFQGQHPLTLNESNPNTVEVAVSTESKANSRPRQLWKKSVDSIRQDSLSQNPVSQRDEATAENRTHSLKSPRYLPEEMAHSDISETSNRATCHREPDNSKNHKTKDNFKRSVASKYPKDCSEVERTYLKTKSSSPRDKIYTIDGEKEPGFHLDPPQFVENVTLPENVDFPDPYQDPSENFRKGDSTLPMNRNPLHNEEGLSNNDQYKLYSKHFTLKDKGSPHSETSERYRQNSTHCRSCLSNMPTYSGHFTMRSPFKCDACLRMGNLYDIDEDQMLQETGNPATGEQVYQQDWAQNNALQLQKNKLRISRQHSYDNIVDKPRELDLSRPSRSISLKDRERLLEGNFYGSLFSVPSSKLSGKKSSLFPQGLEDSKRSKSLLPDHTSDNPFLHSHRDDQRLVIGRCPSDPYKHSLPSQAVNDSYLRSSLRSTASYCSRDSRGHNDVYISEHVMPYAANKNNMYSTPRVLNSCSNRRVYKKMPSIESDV

In the case of `CN1CCN(Cc2ccccc2)C2(CNC2=O)C1` (single isomer, unassigned) [EG-1, 5-Benzyl-8-Methyl-2,5,8-Triazaspiro[3.5]Nonan-1-One], the “% F” value [1] is reported as 14%, the “CSF Cmax” value ([1]; CSF) is reported as 367.18 ng/mL and the “Brain Cmax” value ([1]; brain) is reported as 334.3 ng/mL. For the same molecule, the AUClast [1, 4] was 428.79 ng·h/mL, the Tmax [1, 4] was 15 min and the Cmax ([1]; plasma, normal saline (compounds marked * in 1% NMP and 99% normal saline)) was 700.4 ng/mL. The “NMDAR2C A: % maximal [3H]MK-801 binding relative to 1 mM glycine” value (NMDAR2C) was “++ (>100%=++)”, the EC50 (NMDAR2C; read-out: NMDAR2C B: log EC50 (converted)) was > 1 nM and the “Max Effect (mean number of 50 kHz USVs per 15 seconds)” value [2] was “*** (***: 10.1-20)”. The “NMDAR2A A: % maximal [3H]MK-801 binding relative to 1 mM glycine” value (NMDAR2A) was “+ (<100%=+)”, the EC50 (NMDAR2A; read-out: NMDAR2A B: log EC50 (converted)) was < 1 nM and the AUClast (IV pharmacokinetics) was 622.05 ng·h/mL. The C0 (IV pharmacokinetics) was 2010.43 ng/mL, the Cl (IV pharmacokinetics) was 53.51 mL/min/kg and the T1/2 (IV pharmacokinetics) was 0.43 h. The Vss (IV pharmacokinetics) was 0.96 L/kg, the “NMDAR2D A: % maximal [3H]MK-801 binding relative to 1 mM glycine” value (NMDAR2D) was “− (−=0)” and the “NMDAR2B A: % maximal [3H]MK-801 binding relative to 1 mM glycine” value (NMDAR2B) was “+ (<100%=+)”. The EC50 (NMDAR2B; read-out: NMDAR2B B: log EC50 (converted)) was < 1 nM.
With `C[C@@H](O)[C@H](N)C(=O)N1CCN(C)CC12CNC2=O` (single isomer, unassigned) [EJ-1, 5-(L-Threonyl)-8-Methyl-2,5,8-Triazaspiro[3.5]Nonan-1-One] the “% F” value [3] was 4%, the AUC(0-t) (in vivo; AUClast) was 568 ng·h/mL and the Cmax (in vivo; Cmax) was 186 ng/mL. It also gave a Tmax (in vivo; Tmax) of 45 min, an AUC(0-t) (IV pharmacokinetics; Sprague Dawley, in vivo, iv) of 3160 ng·h/mL and a clearance (IV pharmacokinetics; Sprague Dawley, in vivo, iv) of 10.5 mL/min/kg. For the same molecule, the half-life (IV pharmacokinetics; Sprague Dawley, in vivo, iv) was 78 min, the C0 (IV pharmacokinetics; Sprague Dawley, in vivo, iv, read-out: C0) was 4030 ng/mL and the Vss (IV pharmacokinetics) was 0.62 L/kg.
For `C[C@@H](O)[C@H](N)C(=O)N1CCN(C)CC12CNC2=O` (single isomer, unassigned) [EJ-2, 5-(L-Threonyl)-8-Methyl-2,5,8-Triazaspiro[3.5]Nonan-1-One], the “% F” value [3] was 9%, the AUClast [3] was 811.97 ng·h/mL and the Cmax [3] was 201.12 ng/mL. For the same molecule, the Tmax [3] was 1.33 h, the AUClast (IV pharmacokinetics) was 1737 ng·h/mL and the C0 (IV pharmacokinetics) was 3415.56 ng/mL. The Cl (IV pharmacokinetics) was 18.95 mL/min/kg, the T1/2 (IV pharmacokinetics) was 1.59 h and the Vss (IV pharmacokinetics) was 1.35 L/kg.
